# In PubChem BioAssay AID1850 (Southern Research Specialized Biocontainment Screening …, 2009):
# System: Salmonella Typhi PhoP-promoter GFP reporter, fluorescence, 4 h
# Assay: Inhibition of PhoP regulon, Salmonella typhi GFP reporter cells, confirmation, 4 h (AID 1850)
row,SMILES,IC50 [µM]
1,C#CCOCCOCCOCCNc1nc(N2CCN(C(=O)CCCCCCCCCCNC(=O)[C@H]([C@@H](C)CC)n3cc(CCCCN=C(N)N)nn3)CC2)nc(N2CCN(C(=O)CCCCCCCCCCNC(=O)[C@H](CCCCN)n3cc(C)nn3)CC2)n1,35.7
2,CN1CCC(=C2c3ccccc3C=Cc3ccccc32)CC1,105
3,Clc1ccc(-c2cc(C3CCNCC3)[nH]n2)c(Cl)c1,55
4,CCOc1ccc(/C=N/NC(=O)c2[nH]ncc2Br)c(O)c1,138
5,Oc1ccccc1Nc1nc(NCc2ccco2)c2ccccc2n1,34.8
6,C#CCOCCOCCOCCNc1nc(N2CCN(C(=O)CCCCCCCCCCNC(=O)[C@H](CCCCN)n3cc(CCO)nn3)CC2)nc(N2CCN(C(=O)CCCCCCCCCCNC(=O)[C@H](CCCCN)n3cc(CCO)nn3)CC2)n1,60.3
7,Clc1ccc(Nc2ccc(NCc3ccccc3)nn2)cc1,101
8,CCn1cc(C(=O)O)c(=O)c2ccc(C)nc21,60.4
9,Cn1ncnc2c(=O)n(C)c(=O)nc1-2,1.29
10,CN1CCN(c2nc(Nc3ccc(F)cc3)nc(Nc3ccc(F)cc3)n2)CC1,80.6
11,CCC(C)NC(=O)c1cn(CC)c2cc(N3CCN(C)CC3)c(F)cc2c1=O (stereo unspecified),20.7
12,Clc1ccc(C[n+]2cc(-c3ccc(Cl)cc3)n3c2CCC3)cc1,52.4
13,Clc1ccc(CNCc2cccs2)cc1Cl,32
14,Cc1ccc(Nc2nc(NCCO)c3ccccc3n2)cc1C,18.7
15,O=C(/C=C(\O)c1ccccc1)C(=O)NNC(=O)c1ccccc1,23.8
16,O=C(N/N=C/c1ccc([N+](=O)[O-])s1)c1cccnc1,24
17,CCCCOCCCNc1ncnc2c1[nH]c1ccccc12,71.1
18,Clc1ccc2c(c1)C(N1CCNCC1)Cc1ccccc1S2 (stereo unspecified),35.5
19,Nc1cccc2nc3ccccc3cc12,35.7
20,CN1CCN(c2ccc(NC(=O)c3ccc(-c4ccc(Br)cc4)o3)cc2)CC1,28.9
21,O=C(Nc1ccc([N+](=O)[O-])cc1Cl)c1cc(Cl)ccc1O,123
22,Oc1c(C(Nc2ccccn2)c2cccnc2)cc(Cl)c2cccnc12 (stereo unspecified),36.5

row,SMILES,IC50 [µM]
1,Cc1cc(OCCCCCN2CCCC2)ccc1Cl,122
2,CC(C(=O)NC1CCS(=O)(=O)C1)N1C(=O)/C(=C/c2ccc(Cl)cc2)SC1=S (stereo unspecified),22.2
3,O=C(/C=C/c1cc(Br)ccc1O)c1ccco1,83.9
4,[O-][n+]1c2c(c3c4non(O)c4ccc31)CCCC2,74.7
5,O=C(Cn1nc(CNc2ccc(Br)cc2)[n+]2c1CCCCC2)c1ccc([N+](=O)[O-])cc1,40.1
6,Nc1ncncc1-c1ccc(Cl)cc1,143
7,CC(NCC(O)COc1ccc2ccccc2c1)c1ccccc1 (stereo unspecified),79.8
8,CCC(O)(CC)C(=O)N/N=C/c1cc(Br)cc(Br)c1O,77.9
9,NC1=C(Br)C(=O)c2ccccc2C1=O,25.4
10,CCCCCOc1ccc(CSC2=NCCN2)cc1[N+](=O)[O-],36.8
11,CC[n+]1c(/C=C/C=C/c2ccc(N(C)C)cc2)sc2ccccc21,39.2
12,CN1CCN(C(c2ccc(Br)cc2)c2cc(Cl)c3cccnc3c2O)CC1 (stereo unspecified),68.3
13,CS(=O)(=O)c1ccc([C@@H](O)[C@@H](CO)NC(=O)C(Cl)Cl)cc1,33.5
14,Cc1ccccc1Nc1cc(C)c2c(O)cccc2n1,6.42
15,O=C1CSC(=S)N1c1cccc(O)c1,126
16,CC(NCc1ccccc1O)C12CC3CC(CC(C3)C1)C2 (stereo unspecified),34.2
17,Nc1nc(N)c(Cc2ccc(Cl)cc2Cl)c(N)n1,94.9
18,CCn1cc(C(=O)O)c(=O)c2cc(F)c(N3CCN(C(=S)NC(=O)c4ccccc4F)CC3)cc21,55.1
19,CC(C)(C)c1ccc(OCCCNC2CCCC2)cc1,83.2
20,NC1=NC[C@H](c2ccccc2)N1CCCCC1CCCCC1,34.8
21,Nc1[nH]ncc1-c1ccccc1,69.6
22,COC(=O)N/N=C/c1c[n+]([O-])c2ccccc2[n+]1[O-],49.2

row,SMILES,IC50 [µM]
1,Cc1ccc(NC(=O)c2ccc([N+](=O)[O-])o2)c(C)c1,76.6
2,CCN1CCN(C(=O)c2cc3cc(Cl)ccc3[nH]2)CC1,89.5
3,O=C(Nc1nnc(-c2ccco2)o1)c1cccc(Cl)c1,36.9
4,Cc1ccc(-c2c[n+](CC(=O)Nc3nc(-c4ccccc4)cs3)c3n2CCC3)cc1,22.1
5,CN1CCN(c2c(F)cc3c(=O)c(C(=O)O)cn4c3c2OCN4C)CC1,< 0.23
6,CCN1/C(=C/c2cc[n+](C)cc2)C=Cc2cc(C)ccc21,36.9
7,C/C(=N\NC(=O)c1cccc(Br)c1)c1ccccn1,36.6
8,CN(C)CCCN(C(=O)COc1ccccc1)c1nc2ccc(Cl)cc2s1,77.8
9,C#CCOCCOCCOCCNc1nc(N2CCN(C(=O)CCCCCCCCCCNC(=O)[C@H](CCCCN)n3cc(CCO)nn3)CC2)nc(N2CCN(C(=O)CCCCCCCCCCNC(=O)[C@H](CCCN=C(N)N)n3cc(C[C@@H](C)CC)nn3)CC2)n1,34.5
10,c1ccc2cc3c(NCCN4CCOCC4)ccnc3cc2c1,77.1
11,CN1CCN(C(c2ccc(Cl)cc2)c2cc(Cl)c3cccnc3c2O)CC1 (stereo unspecified),19.7
12,C#CCOCCOCCOCCNc1nc(N2CCN(C(=O)CCCCCCCCCCNC(=O)[C@H](CCCCN)n3cc(C)nn3)CC2)nc(N2CCN(C(=O)CCCCCCCCCCNC(=O)[C@@H]([C@H](C)CC)n3cc(CCCCCN)nn3)CC2)n1,33
13,CO[C@H]1C=CO[C@@]2(C)Oc3c(C)c(O)c4c(O)c(c(C=NN5CCN(C)CC5)c(O)c4c3C2=O)NC(=O)C(C)=CC=C[C@H](C)[C@H](O)[C@@H](C)[C@@H](O)[C@@H](C)[C@H](OC(C)=O)[C@@H]1C,21.1
14,O=C1C(=O)c2ccccc2-c2ccccc21,20.7
15,CCCCCCCCCCOC(=O)Cn1c(COc2ccccc2OC)[n+](C)c2ccccc21,10.2
16,CC1CCN(CCCNC(=O)c2ccc3c(=O)n(Cc4ccc(Cl)cc4)c(=S)[nH]c3c2)CC1,44.5
17,Clc1ccc(/C=C/c2ncc[nH]2)c(Cl)c1,38.1
18,C#CCOCCOCCOCCNc1nc(N2CCN(C(=O)CCCCCCCCCCNC(=O)[C@@H](CCSC)n3cc(CCO)nn3)CC2)nc(N2CCN(C(=O)CCCCCCCCCCNC(=O)[C@H]([C@@H](C)CC)n3cc(CCCCCN)nn3)CC2)n1,119
19,CCCCCCCCCCCCCCCC[N+](C)(C)CCN(Cc1ccc(OC)cc1)c1ncccn1,19.3
20,O/N=C/c1ccc(OCc2ccccc2)c(Cl)c1,80.6
21,Nc1ncn(C2O[C@H](CO)[C@@H](O)[C@H]2O)c(=O)n1 (stereo partly specified),34
22,Clc1ccc(C(c2ccc(Cl)cc2)n2cc[n+](CC(OCc3ccc(Cl)cc3Cl)c3ccc(Cl)cc3Cl)c2)cc1 (stereo unspecified),10.5
